Reference: ChEMBL document CHEMBL1156378, “A new dimeric stilbene with tyrosinase inhibitiory activity from Artocarpus gomezianus” (J Nat Prod, 2001)

Molecular target: T1, Tyrosinase (Agaricus bisporus, UniProt O42713)
T1 sequence (O42713 whole entry): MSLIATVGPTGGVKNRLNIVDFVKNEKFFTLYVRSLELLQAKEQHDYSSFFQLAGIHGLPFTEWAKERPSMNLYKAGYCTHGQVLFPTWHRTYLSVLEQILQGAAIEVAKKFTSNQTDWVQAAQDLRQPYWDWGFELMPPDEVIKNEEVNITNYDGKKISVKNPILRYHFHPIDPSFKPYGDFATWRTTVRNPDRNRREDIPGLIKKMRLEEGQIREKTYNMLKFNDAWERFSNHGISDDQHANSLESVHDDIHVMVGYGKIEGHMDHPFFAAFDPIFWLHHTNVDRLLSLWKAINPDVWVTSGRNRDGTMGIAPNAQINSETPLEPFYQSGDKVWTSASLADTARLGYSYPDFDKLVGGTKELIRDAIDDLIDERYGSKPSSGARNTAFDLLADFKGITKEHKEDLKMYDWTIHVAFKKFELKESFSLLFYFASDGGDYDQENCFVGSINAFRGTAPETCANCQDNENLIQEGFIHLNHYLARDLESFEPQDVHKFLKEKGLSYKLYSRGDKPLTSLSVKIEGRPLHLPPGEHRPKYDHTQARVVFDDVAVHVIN
Description: Inhibition of mushroom tyrosinase

IC50 [µM] | SMILES
39 | Oc1cc(O)cc(CC(c2ccc(O)cc2O)c2c(O)cc(/C=C/c3ccc(O)cc3O)cc2O)c1 (configuration not stated) [ANDALASIN A]
68 | Oc1cc(O)cc(/C=C/c2cc(C(Cc3cc(O)cc(O)c3)c3ccc(O)cc3O)c(O)cc2O)c1 (configuration not stated) [ARTOGOMEZIANOL]
